Test results published in the OligoGym collection.
These antisense oligonucleotides have a phosphorothioate backbone; sugars and methylation of C are not fully specified.

Molecular target: PRKAR2A
Conditions: ASO
Also: test concentration or dose not given here.

| Sequence | remaining target (mRNA or protein) (fraction of control) |
| --- | --- |
| AGGCGGGTGAAGTACTCCAC | 0.46 |
| CTGGATGTGGCTCATGCCGG | 0.52 |
| GTGGCTCATGCCGGCGGCGG | ≥ 1 |
| ATGTGGCTCATGCCGGCGGC | 0.95 |
| GCATGTTTATACTTTGGACT | 0.83 |
| CATGCCGGCGGCGGCCGAAG | ≥ 1 |
| GCGGCCACTGTCTCCGCGCT | 0.67 |
| CTAGGAACTGGAACTTCCAA | 0.91 |
| CTCATGCCGGCGGCGGCCGA | 0.96 |
| GGGTGTTGTACATCAGAGCT | 0.87 |
| TGCCGGCGGCGGCCGAAGGG | ≥ 1 |
| ATAACTAAGCATTTGACATC | 0.94 |
| TGCAGCAGCTCCGTGAGCCC | 0.57 |
| TTCTAAAAGTCACCCGGTCC | 0.39 |
| GGCTCATGCCGGCGGCGGCC | 0.62 |
| GCAGCGGGCAATCTCGACCT | 0.5 |
| GCGCAACCCTACGCTACCAC | 0.53 |
| TACTAAAATGTCATAAGTTC | ≥ 1 |
| TTTAGTCCTGCTTCTAATCA | 0.73 |
| GAGAGACATGCCGTTTTGAA | 0.51 |
| CAGGAACAGTTCTGTCATGT | 0.65 |
| CTGACACCTCTAGTGATTTA | ≥ 1 |
| GGATGTGGCTCATGCCGGCG | 0.94 |
| TTTGTTGGTGACCAGGGCAA | 0.6 |
| CCATGCAGGGCCCCAGAAGC | 0.52 |
| GGATCTGGATGTGGCTCATG | 0.71 |

Molecular target: CHEK2
Conditions: ASO

| Sequence | remaining target (mRNA or protein) (fraction of control) |
| --- | --- |
| CTTGGGACTGGGTAACGCTG | 0.93 |
| CCATCAATTCCAAAACAATA | ≥ 1 |
| TTTGTGGTCTCGGCACCCTC | 0.77 |

Molecular target: IKBKB
Conditions: ASO

| Sequence | remaining target (mRNA or protein) (fraction of control) |
| --- | --- |
| AGTTTATCTGATGTGATC | 0.8 |
| TCCTGTACAGCTCCCTTG | 0.13 |
| GGGCTCTTGAAGGATACA | 0.39 |
| TGTATTAACCTCTGTTCT | ≥ 1 |
| GCCAGGACACTGTTAAGA | 0.43 |
| CCCCACATGTCTGCGTTG | 0.12 |
| AGGGTGCAGAGGTTATGT | 0.48 |
| TGCACGGGCTGCCAGTTG | 0.46 |
| CTTCGCTAACAACAATGT | ≥ 1 |
| CTGGGATGCCCGTGTCCT | ≥ 1 |
| GGGCTTCCACTGACAGGA | 0.18 |
| TTCAAGATATGAACCAGC | 0.54 |
| TTGGCCTTGAGCTGCTGA | 0.31 |
| CTCAGCTGGAAGAAGGCG | 0.4 |
| GACAACAGTCTTCTCATC | 0.77 |
| GCTTTAGATCCCGATGGA | 0.46 |
| CTGTCCCAAGGCGCTCTT | 0.42 |
| CGTGAAACTCTGGTCTTG | 0.48 |
| GGGAAGGTGACCAGCTCA | 0.3 |
| ATCCTAGGTCAATAATTT | 0.97 |

| Sequence | remaining target (mRNA or protein) (fraction of control) |
| --- | --- |
| TTAAGATGTCATCCAGGG | ≥ 1 |
| TGTAAGTCCACAATGTCG | 0.61 |
| TGATGGCAATCTGCTCAC | ≥ 1 |
| CTGAGTGGCAGGCTTATC | 0.28 |
| CTTCTGCTTGCAAACCAC | 0.82 |
| TTAACTTGCCGTCTGAAA | 0.8 |
| CACAGGGTAGGTGTGGAT | 0.6 |
| AATGTCACTCAGCAAGGT | 0.25 |
| ACTGGTTCAGGTACTTCC | 0.88 |
| GTTCCATTCAAGTCTTCG | 0.78 |
| GCTCAGGTAAGCTGTTGG | 0.45 |
| GTCAGCCTTCTCATGATC | ≥ 1 |
| ACTCAAAGGCCAGGGTGC | 0.59 |
| GGAGAGGCAGCTGTTGTT | 0.43 |
| ACTTCTGCTGCTCCAGTA | 0.58 |
| GAGGAGATTCATCATGGC | 0.97 |
| CTCGAAGCTCTGAATTGC | 0.48 |
| CAGCTGTGCTCTTCTTCT | 0.75 |
| TGAGTCTCATAGGTGATT | ≥ 1 |
| TTTCACTTCGTTCTCCCG | 0.33 |
